Data as given in US12048766B2, “Gamma polyglutamated tetrahydrofolates and uses thereof” (L.E.A.F. HOLDINGS GROUP LLC, priority 2018, dated 2024).

Assays:
HT-29 (colon cancer) = assay: CellTiter-Glo luminescent cell viability assay, HT-29; assay type: cell-based, human; conditions: 48 hours, FIG. 3
Protocol: Luciferase luminescence were recorded for each well.

AML12 liver cells = assay: Toxicity on AML12 liver cells; assay type: cell-based; conditions: all doses studied (16 to 128 nM); 48 hours; FIG. 14
Text: (§1) Methodologies used for cell line AML12 (non-cancerous liver cells) and CCD841 (non-cancerous colon epithelial cells) are similar to the methods used for cancer cells.

[1] = tested on: CCD841 colon epithelium cells; assay: Toxicity on CCD841 colon epithelium cells; assay type: cell-based; conditions: all concentrations tested (16 to 128 nM); 48 hours; FIG. 15
Text: as §1

| SMILES | potency rank among test articles (HT-29 (colon cancer)) | reduction in AML12 liver cell counts (AML12 liver cells) | decrease in the number of CCD841 colon epithelium cells [1] |
| --- | --- | --- | --- |
| Nc1nc(=O)c2c(CCc3ccc(C(=O)N[C@@H](CCC(=O)N[C@@H](CCC(=O)N[C@@H](CCC(=O)N[C@@H](CCC(=O)N[C@@H](CCC(=O)N[C@@H](CCC(=O)O)C(=O)O)C(=O)O)C(=O)O)C(=O)O)C(=O)O)C(=O)O)cc3)c[nH]c2[nH]1 [gG6, pemetrexed L-gamma hexaglutamate] | least potent | – | – |
| Nc1nc2[nH]cc(CCc3ccc(C(=O)N[C@@H](CCC(=O)O)C(=O)O)cc3)c2c(=O)[nH]1 [pemetrexed] | – | approximately 40% | ≥ 50% |
